{
  "source": "patent US12472185B2",
  "about": "“Methods for killing antibiotic tolerant bacteria” (THE PENN STATE RESEARCH FOUNDATION, priority 2020, dated 2025)",
  "key": {"human cancer HT-29 cells": {"system": "human cancer HT-29 cells", "assay": "Viability (CCK-8) and cytotoxicity (LDH) assays", "type": "cell-based", "details": "24 hr", "experimental": "FIG. 11. Cytotoxicity of NPIMA with HT-29 cells. (A) Cell viability was measured via a CCK-8 assay. (B) Cytotoxicity was measured with various concentrations of NPIMA […] for 24 h. Cell viability was measured at 450 nm, and cell toxicity was measured at 492 nm and a reference wavelength ([…]) was used.\n(§1) For bacterial viability, cells were washed twice with 0.85% NaCl, resuspended in 1×PBS, and cell counts were determined via the drop assay (Donegan, Matyac, Seidler, & Porteous, 1991). For human cell viability, pre-cultured human cancer HT-29 cells were dispensed in 98 μl in 96-well plates with approximately 5,000 cells/well. NPIMA was added (2 μl) to produce concentrations of 5, 10, 100, and 200 μM. For controls, Triton X-100 (positive control) and DMSO (negative solvent control), were used, and the medium was used for background. Plates were incubated in a humidified incubator (37° C., 5% CO2) for 24 hr. Cell viability was determined via a cell counting kit (CCK-8 Kit, ab228554; Abcam), and cytotoxicity was determined via the lactate dehydrogenase (LDH) assay (LDH Assay Kit, MK401; Takara)."}, "E. coli BW25113 [1]": {"system": "E. coli BW25113", "assay": "LIVE/DEAD staining", "type": "cell-based, Escherichia coli", "details": "100 μM, exponentially-growing cells", "experimental": "(§2) FIG. 4. NPIMA lyses Escherichia coli, Pseudomonas aeruginosa, and Staphylococcus aureus. LIVE/DEAD staining of (a) E. coli BW25113 after 0.75 hr, (b) P. aeruginosa PA14 after 1 hr, and (c) S. aureus after 1 hr treatment with NPIMA at 100 μM. […] White arrows indicate lysed cells. Representative images are shown. Scale bar=[…]. NPIMA, 5-nitro-3-phenyl-1H-indol-2-ylmethylamine hydrochloride.\n(§3) Cell viability after treating with NPIMA was determined using the using the LIVE/DEAD BacLight Bacterial Viability Kit (catalog number, L7012; Molecular Probes, Inc., Eugene, OR). The fluorescence signal was analyzed via a Zeiss Axioscope.A1 using excitation at 485 nm and emission at 530 nm for green fluorescence and using excitation at 485 nm and emission at 630 nm for red fluorescence."}, "P. aeruginosa PA14 [2]": {"system": "P. aeruginosa PA14", "assay": "Minimum inhibitory concentration (MIC)", "type": "cell-based", "details": "Pseudomonas aeruginosa, LB, 24 hr", "experimental": "(§4) The bacteria used in this study are E. coli K-12 BW25113 (Baba et al., 2006), S. aureus ATCC29213, and P. aeruginosa PA14 (Liberati et al., 2006). Lysogeny broth (LB; Bertani, 1951) was used at 37° C. for culturing the bacteria. 2-(Aminomethyl)-indole was obtained from Sigma-Aldrich (catalog number 563838), and 2-methyl-5-nitro-3-phenyl-1H-indole was obtained from ChemBridge (San Diego, CA).\n(§5) To determine the MICs of NPIMA and 5-iodoindole for E. coli K-12, S. aureus, and P. aeruginosa PA14, cells were inoculated into LB at varying concentrations and grown for 24 hr. The MIC was determined as the lowest concentration that prevented an increase in growth as evidenced by a lack of change of turbidity."}, "E. coli K-12 BW25113": {"system": "E. coli K-12 BW25113", "assay": "Minimum inhibitory concentration (MIC)", "type": "cell-based", "details": "Escherichia coli, LB, 24 hr", "experimental": "as §4, §5"}, "S. aureus ATCC29213": {"system": "S. aureus ATCC29213", "assay": "Minimum inhibitory concentration (MIC)", "type": "cell-based", "details": "Staphylococcus aureus, LB, 24 hr", "experimental": "as §4, §5"}, "S. aureus": {"system": "S. aureus", "assay": "LIVE/DEAD staining", "type": "cell-based, Staphylococcus aureus", "details": "100 μM, 1 hr", "experimental": "as §2, §3"}, "E. coli BW25113 [3]": {"system": "E. coli BW25113", "assay": "Transmission electron microscopy (TEM)", "type": "cell-based, Escherichia coli", "details": "100 μM", "experimental": "FIG. 6. NPIMA damages the Escherichia coli cell membrane. Transmission electron microscopic (TEM) images of E. coli BW25113 after NPIMA (100 μM) treatment for 40 min. Two representative images are shown. The arrow indicates membrane damage. NPIMA, 5-nitro-3-phenyl-1H-indol-2-ylmethylamine hydrochloride.\nFor transmission electron microscopy (TEM), E. coli BW25113 was grown to a turbidity of 0.8 at OD600, contacted with NPIMA at 100 μM for 0.75 hr in PBS, centrifuged at 8000 g, and resuspended in PBS. The samples were fixed with buffer (2.5% glutaraldehyde in 0.1M cacodylate buffer, pH 7.4) and negative stained with 2% uranyl acetate in the dark for 1 hr, then dehydrated. The sectioned specimens were stained again with uranyl acetate and lead citrate after dehydration and resin embedded. TEM images were obtained using a JEOL JEM 1200 EXII instrument."}, "[4]": {"system": "P. aeruginosa PA14 exponential cells", "assay": "Survival of exponentially-growing cells (drop assay)", "type": "cell-based, Pseudomonas aeruginosa", "details": "100 μM", "experimental": "(§6) FIG. 2. NPIMA eradicates Escherichia coli, Pseudomonas aeruginosa, and Staphylococcus aureus exponential cells. Survival after 6 hr for (a) E. coli BW25113 with NPIMA and 5-iodoindole at 100 μM, (b) P. aeruginosa PA14 with NPIMA and 5-iodoindole at 100 μM, and (c) S. aureus with NPIMA and 5-iodoindole at 200 μM. Asterisk indicates no viable cells detected. NPIMA, 5-nitro-3-phenyl-1H-indol-2-yl-methylamine hydrochloride.\nas §1"}, "P. aeruginosa PA14 [5]": {"system": "P. aeruginosa PA14", "assay": "LIVE/DEAD staining", "type": "cell-based, Pseudomonas aeruginosa", "details": "100 μM, 1 hr", "experimental": "as §2, §3"}, "S. aureus cells": {"system": "S. aureus cells", "assay": "Survival of cells (drop assay)", "type": "cell-based, Staphylococcus aureus", "details": "200 μM", "experimental": "as §6, §1"}},
  "note": "“And” between values parts separate entries of the source, which are not always exact repeats. Equal entries are not always repeated.",
  "data": [
    {"smiles": "Cl.NCc1[nH]c2ccc([N+](=O)[O-])cc2c1-c1ccccc1", "note": "[NPIMA, [(5-nitro-3-phenyl-1H-indol-2-yl)methyl]amine hydrochloride]", "values": [
      {"measurement": "toxicity (LDH and CCK-8)", "setting": "human cancer HT-29 cells; 5 μM", "value": "not toxic"},
      {"measurement": "toxicity (LDH and CCK-8)", "setting": "human cancer HT-29 cells; 10 μM", "value": "not toxic"},
      {"measurement": "concentrations showing toxicity in both tests", "setting": "human cancer HT-29 cells", "value": "≥ 50", "unit": "µM"},
      {"measurement": "cell lysis seen by LIVE/DEAD staining (extracellular DNA)", "setting": "E. coli BW25113 [1]", "value": "lysed"},
      {"measurement": "MIC", "setting": "P. aeruginosa PA14 [2]", "value": 250, "unit": "µM"},
      {"measurement": "MIC", "setting": "E. coli K-12 BW25113", "value": "100 µM and 15 µg/mL"},
      {"measurement": "MIC", "setting": "S. aureus ATCC29213", "value": 100, "unit": "µM"},
      {"measurement": "cells killed (LIVE/DEAD)", "setting": "S. aureus", "value": 27, "unit": "%"},
      {"measurement": "cell envelope damage by TEM", "setting": "E. coli BW25113 [3]", "value": "clear cell envelope damage"},
      {"measurement": "time to eradicate exponentially-growing P. aeruginosa PA14 cells", "setting": "[4]", "value": 6, "unit": "h"},
      {"measurement": "cell lysis seen by LIVE/DEAD staining (extracellular DNA)", "setting": "P. aeruginosa PA14 [5]", "value": "lysed"},
      {"measurement": "cells killed (LIVE/DEAD)", "setting": "P. aeruginosa PA14 [5]", "value": 100, "unit": "%"},
      {"measurement": "time to eradicate S. aureus cells", "setting": "S. aureus cells", "value": 3, "unit": "h"}
    ]}
  ]
}
